Where “and” joins values, the source holds several entries; their conditions need not be identical. Equal entries are not always repeated.
Assays:
CAL-85-1 [1] = test: normalised viability (% of control), CellTiter-Blue; higher = more viable cells (about 100 = DMSO control); conditions: incubation time: 72 h
Description: (§1)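 DSRT, CellTiter-Blue viability, 72 h incubation. Signal is normalised to DMSO and benzethonium chloride controls. Value is the normalised response at dose 6.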

CAL-51 [2] = test: as above; conditions: incubation time: 72 h
Description: as §1

MDA-MB-453 [3] = test: as above; conditions: incubation time: 72 h
Description: as §1

HDQ-P1 [4] = test: as above; conditions: incubation time: 72 h
Description: as §1

CAL-148 [5] = test: as above; conditions: incubation time: 72 h
Description: as §1

DU-4475 [6] = test: as above; conditions: incubation time: 72 h
Description: as §1

MDA-MB-436 = test: drug sensitivity score (DSS), CellTiter-Blue viability (DSS (AUC-based score)); higher = stronger viability inhibition; extreme values may be limits of the assay; conditions: incubation time: 72 h
Description: (§2)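 DSRT with the CellTiter-Blue (resazurin reduction) viability readout, fluorescence 560/590 nm, 72 h incubation. Plates were normalised to DMSO and benzethonium chloride controls. DSS is computed from the area under the fitted dose-response curve (5 or 9 concentrations).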

MFM-223 = test: as above; conditions: incubation time: 72 h
Description: as §2

HCC1937 [7] = test: as above; conditions: incubation time: 72 h
Description: as §2

CAL-120 = test: as above; conditions: incubation time: 72 h
Description: as §2

CAL-85-1 [8] = test: as above; conditions: incubation time: 72 h
Description: as §2

MDA-MB-231 [9] = test: as above; conditions: incubation time: 72 h
Description: as §2

CAL-51 [10] = test: as above; conditions: incubation time: 72 h
Description: as §2

HCC1599 [11] = test: as above; conditions: incubation time: 72 h
Description: as §2

SK-BR-3 = test: as above; conditions: incubation time: 72 h
Description: as §2

HCC1143 [12] = test: as above; conditions: incubation time: 72 h
Description: as §2

MDA-MB-453 [13] = test: as above; conditions: incubation time: 72 h
Description: as §2

BT-474 = test: as above; conditions: incubation time: 72 h
Description: as §2

HDQ-P1 [14] = test: as above; conditions: incubation time: 72 h
Description: as §2

Hs578T = test: as above; conditions: incubation time: 72 h
Description: as §2

BT-549 = test: as above; conditions: incubation time: 72 h
Description: as §2

MDA-MB-468 = test: as above; conditions: incubation time: 72 h
Description: as §2

CAL-148 [15] = test: as above; conditions: incubation time: 72 h
Description: as §2

DU-4475 [16] = test: as above; conditions: incubation time: 72 h
Description: as §2

MDA-MB-231 [17] = conditions: 72 h
Outline: (§3)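 After 72 h on 384-well plates pre-loaded with compound in 5 µl medium, breast cancer cell lines seeded in 20 µl were assayed for viability with 2.5 µl CellTiter-Blue at 37 °C for 2 h, read at 560/590 nm. Each plate was quality-checked by Z'-factor and normalised to vehicle and a positive kill control. EC50 comes from the fitted percent-inhibition dose-response curve, censored at the top concentration, and rows scoring zero for drug sensitivity were left out.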

HCC1599 [18] = conditions: 72 h
Outline: as §3

HCC1143 [19] = conditions: 72 h
Outline: as §3

HCC1937 [20] = conditions: 72 h
Outline: as §3

SMILES	drug sensitivity score (MDA-MB-436)	drug sensitivity score (MFM-223)	drug sensitivity score (HCC1937 [7])	drug sensitivity score (CAL-120)	drug sensitivity score (CAL-85-1 [8])	drug sensitivity score (MDA-MB-231 [9])	drug sensitivity score (CAL-51 [10])	drug sensitivity score (HCC1599 [11])	drug sensitivity score (SK-BR-3)	drug sensitivity score (HCC1143 [12])	drug sensitivity score (MDA-MB-453 [13])	drug sensitivity score (BT-474)	drug sensitivity score (HDQ-P1 [14])	drug sensitivity score (Hs578T)	drug sensitivity score (BT-549)	drug sensitivity score (MDA-MB-468)	drug sensitivity score (CAL-148 [15])	drug sensitivity score (DU-4475 [16])	EC50, CellTiter-Blue viability (MDA-MB-231 [17]) [nM]	normalised viability (CAL-85-1 [1]; 300 nM)	further results
CC(=O)Nc1cccc(-n2c(=O)n(C3CC3)c(=O)c3c(Nc4ccc(I)cc4F)n(C)c(=O)c(C)c32)c1	0	0	0	8.88	12.1	21.7	7.72	8.87	0	9.72	6.65	0	12.7	0	0	2.67	0	39.6	1.8	–	normalised viability (CAL-85-1 [1]; 7.5 nM): 76.2%; normalised viability (CAL-51 [2]; 7.5 nM): 81.6%; normalised viability (MDA-MB-453 [3]; 7.5 nM): 99.6%; normalised viability (HDQ-P1 [4]; 7.5 nM): 54.1%; normalised viability (CAL-148 [5]; 7.5 nM): 90.7%; normalised viability (DU-4475 [6]; 7.5 nM): 0.58%; EC50, CellTiter-Blue viability (HCC1599 [18]): 31.5 nM; EC50, CellTiter-Blue viability (HCC1143 [19]): 2.92 nM
CC[C@@H]1C(=O)N(C)c2cnc(Nc3ccc(C(=O)NC4CCN(C)CC4)cc3OC)nc2N1C1CCCC1 [BI 2536]	7.37	19	22.8	21.6	14.7	16.4	20.7	0	25.6	13.2	23	0	5.37	8.18	21.3	15	19.7	19.3	5.71	–	normalised viability (CAL-85-1 [1]; 30 nM): 45.3%; normalised viability (CAL-51 [2]; 30 nM): 25.8%; normalised viability (MDA-MB-453 [3]; 30 nM): 28.4%; normalised viability (HDQ-P1 [4]; 30 nM): 43.6%; normalised viability (CAL-148 [5]; 30 nM): 25.5%; normalised viability (DU-4475 [6]; 30 nM): 18.1%; EC50, CellTiter-Blue viability (HCC1937 [20]): 3.79 nM; EC50, CellTiter-Blue viability (HCC1143 [19]): 6.32 nM
CC[C@H](Nc1ncnc2[nH]cnc12)c1nc2cccc(F)c2c(=O)n1-c1ccccc1 [CAL-101]	0	0	0	1.02	0	0	0	3.9	2.96	1.48	2.74	0	2.23	0	1.74	2.46	0	2.91	–	81.9%	normalised viability (CAL-51 [2]; 300 nM): 85.3%; normalised viability (MDA-MB-453 [3]; 300 nM): 86%; normalised viability (HDQ-P1 [4]; 300 nM): 58%; normalised viability (CAL-148 [5]; 300 nM): 90.4%; normalised viability (DU-4475 [6]; 300 nM): 91.1%; EC50, CellTiter-Blue viability (HCC1599 [18]): 94.2 nM; EC50, CellTiter-Blue viability (HCC1143 [19]): 2280 nM
C=CC(=O)Nc1cc2c(Nc3ccc(F)c(Cl)c3)ncnc2cc1OCCCN1CCOCC1 [Canertinib]	11.6	5.96	7.24	6.69	11.9	8.24	3.66	1.14	27.4	3.63	15.9	18.5	14	4.83	6.86	13.9	7.47	2.6	1820	54%	normalised viability (CAL-51 [2]; 300 nM): 104%; normalised viability (MDA-MB-453 [3]; 300 nM): 48.6%; normalised viability (HDQ-P1 [4]; 300 nM): 32.4%; normalised viability (CAL-148 [5]; 300 nM): 81.2%; normalised viability (DU-4475 [6]; 300 nM): 93.3%; EC50, CellTiter-Blue viability (HCC1937 [20]): 2250 nM; EC50, CellTiter-Blue viability (HCC1599 [18]): 9080 nM; EC50, CellTiter-Blue viability (HCC1143 [19]): 4170 nM
Nc1ncn([C@H]2C[C@H](O)[C@@H](CO)O2)c(=O)n1 [Decitabine]	–	0	3.95 and 4.59	0	0	–	–	–	2.77 and 1.44	5.09 and 8.28	–	–	0	0	4.59 and 2.2	21.5 and 21.6	–	4.16 and 2.07	96	81.5% and 90.7%	normalised viability (CAL-51 [2]; 300 nM): 99% and 92.1%; normalised viability (MDA-MB-453 [3]; 300 nM): 95.2% and 101%; normalised viability (HDQ-P1 [4]; 300 nM): 65.3% and 81.8%; normalised viability (CAL-148 [5]; 300 nM): 97.3% and 76%; normalised viability (DU-4475 [6]; 300 nM): 86% and 85.5%; EC50, CellTiter-Blue viability (HCC1937 [20]): 737 nM; EC50, CellTiter-Blue viability (HCC1599 [18]): > 10000 nM
CCN(CC)CCCC(C)Nc1c2ccc(Cl)cc2nc2ccc(OC)cc12 (stereo not drawn) [Mepacrine]	6.69 and 2.28	2.66 and 2.79	9 and 9.95	6.95 and 4.06	4.8 and 2.06	8.94 and 9.12	3.49 and 2.1	5.6 and 4.64	5.2 and 2.74	3.86 and 1.45	6.26 and 3.66	4.38 and 1.69	6.58 and 6.72	2.46 and 1.85	2.79 and 5	–	5.43 and 4.13	4.6 and 3.08	614	100%	normalised viability (CAL-85-1 [1]; 29.7 nM): 101%; normalised viability (CAL-51 [2]; 29.7 nM): 86.1%; normalised viability (CAL-51 [2]; 300 nM): 104%; normalised viability (MDA-MB-453 [3]; 29.7 nM): 103%; normalised viability (MDA-MB-453 [3]; 300 nM): 101%; normalised viability (HDQ-P1 [4]; 29.7 nM): 117%; normalised viability (HDQ-P1 [4]; 300 nM): 109%; normalised viability (CAL-148 [5]; 29.7 nM): 105%; normalised viability (CAL-148 [5]; 300 nM): 102%; normalised viability (DU-4475 [6]; 29.7 nM): 88.3%; normalised viability (DU-4475 [6]; 300 nM): 80.9%; EC50, CellTiter-Blue viability (HCC1937 [20]): 519 nM; EC50, CellTiter-Blue viability (HCC1143 [19]): 1520 nM
O=C(O)C(=O)O.[NH-][C@@H]1CCCC[C@H]1[NH-].[Pt+2] [Oxaliplatin]	2.6	0	3.82	0	0	0	1.13	2.34	0.975	1.68	1.94	0	0	0	4	2.32	2.79	1.32	–	96.9%	normalised viability (CAL-51 [2]; 300 nM): 95.5%; normalised viability (MDA-MB-453 [3]; 300 nM): 98.8%; normalised viability (HDQ-P1 [4]; 300 nM): 78.4%; normalised viability (CAL-148 [5]; 300 nM): 121%; normalised viability (DU-4475 [6]; 300 nM): 113%; EC50, CellTiter-Blue viability (HCC1937 [20]): 4810 nM; EC50, CellTiter-Blue viability (HCC1599 [18]): 820 nM; EC50, CellTiter-Blue viability (HCC1143 [19]): 8310 nM
COc1cc2nccc(Oc3ccc(NC(=O)Nc4cc(C)on4)c(Cl)c3)c2cc1OC [Tivozanib]	0	10.4	0	2.1	0	3.77	2.51	0.494	1.12	0	5.3	2.36	5.92	2.98	2.11	0	0	0	6790	102%	normalised viability (CAL-51 [2]; 300 nM): 89.8%; normalised viability (MDA-MB-453 [3]; 300 nM): 95.8%; normalised viability (HDQ-P1 [4]; 300 nM): 61.2%; normalised viability (CAL-148 [5]; 300 nM): 95.9%; normalised viability (DU-4475 [6]; 300 nM): 109%; EC50, CellTiter-Blue viability (HCC1599 [18]): 4650 nM
C1CN1c1nc(N2CC2)nc(N2CC2)n1 [Triethylenemelamine]	0	0	0	0	0	2.85	0	0	0	0	1.28	0	0	0	1.53	0	0.801	0	698	99%	normalised viability (CAL-51 [2]; 300 nM): 105%; normalised viability (MDA-MB-453 [3]; 300 nM): 108%; normalised viability (HDQ-P1 [4]; 300 nM): 105%; normalised viability (CAL-148 [5]; 300 nM): 118%; normalised viability (DU-4475 [6]; 300 nM): 97.2%
